# Paper PMC9562916, “Investigation of the Phenolic Component Bioavailability Using the In Vitro Digestion/Caco-2 Cell Model, as well as the Antioxidant Activity in Chinese Red Wine” (Foods, 2022)
# Marks after values point to notes of the source that are not given here.
# Test system: not listed separately
# Assay: PC content of red wine before and after in vitro simulated gastrointestinal digestion (HPLC)
# Format: in vitro ADME
# Settings: Cabernet red wine, after simulated gastrointestinal digestion
# Description: The digestion procedure was carried out by adapting the method of Brodkorb et al. and Gómez et al.. […] One milliliter (50 units/mL) of porcine amylase was prepared in a 15 mM Na₃PO₄ buffer solution (pH adjusted to 6.8) containing 1.5 mM CaCl2, and it was added to the red wine solution. After 5 min, 4.5 mL of 0.12 M HCl was added to the mixture to adjust the pH to 2.4. One milliliter of porcine pepsin (0.02 mg/L) was dissolved in a 20 mM HCl solution. The mixture was then maintained at 37 °C for 120 min. The digestion mixture was then centrifuged at 8000× g for 15 min to obtain samples from the gastric digestion phase. […] The mixture was incubated at pH 6.5 at 37 °C for 3 h before being centrifuged. The extracts of the intestinal phase were the supernatants. The same operation was done three times, and each sample was stored in a refrigerator (−20 °C) immediately for further analysis.
# The Pati method was adopted, with slight modifications, to measure the content of the PCs. The Agilent 1100 series HPLC instrument was used; it was equipped with a degasser, quaternary pump solvent delivery, a DAD system, and a single quadrupole mass detector coupled with an electrospray ionization LC–MS interface. Briefly, th samples were injected into a Zorbax SB C18 reversed-phase column (5 µm,150 × 2.1 mm, Agilent Technologies, Santa Clara, CA, USA) using an autosampler after filtering through 0.45 µm cellulose acetate syringe filters. The column temperature was kept at 30 °C, the injection volume was 10 µL, and the flow rate was 0.3 mL/min. The eluents were water and formic acid in a 99:1 (v/v) (A) ratio and 100% acetonitrile (B). […] The MS configuration was as follows: ESI, negative ion mode, nebulizer pressure of 30 psi, a dry gas flow rate of 10 mL/min, dry gas temperature of 350 °C, and a scan rate of 100~1200 m/z. PCs were determined according to their retention times, UV/VIS spectra, and high-resolution MS spectra, in addition to a comparison with the standards. […] Putative annotations were made using spectral features and literature information on the chromatographic properties and mass spectra records from the metabolome database. A standard curve was drawn using methanol solutions with different concentrations as the standards. The limits of detection and quantitation were calculated according to the signal-to-noise ratio (limit of detection: signal-to-noise ratio ≥ 3; limit of quantitation: signal-to-noise ratio ≥ 10). […] PCs All of the samples were determined in triplicate.
row,Compound,"PC Contents, Cabernet, After Digestion"
1,O=c1c(O[C@@H]2O[C@H](CO)[C@@H](O)[C@H](O)[C@H]2O)c(-c2ccc(O)c(O)c2)oc2cc(O)cc(O)c12 [Quercetin-3-glc],202.22 ± 10.52 ^b mg/L
2,O=c1c(OC2O[C@H](CO)[C@@H](O)[C@H](O)[C@H]2O)c(-c2cc(O)c(O)c(O)c2)oc2cc(O)cc(O)c12 (some centres unmarked) [Myricetin-3-glc],36.91 ± 1.10 ^b mg/L
3,"OC[C@H]1O[C@@H](Oc2cc3c(O)cc(O)cc3[o+]c2-c2cc(O)c(O)c(O)c2)[C@H](O)[C@@H](O)[C@@H]1O [Delphinidin-3-glc, delphinidin-3-glucoside]",2.96 ± 0.09 ^b mg/L

# Same assay, conditions: Helanshan red wine, after digestion vs undigested
row,Compound,Increase in content after digestion [%]
1,"OC[C@H]1O[C@@H](Oc2cc3c(O)cc(O)cc3[o+]c2-c2cc(O)c(O)c(O)c2)[C@H](O)[C@@H](O)[C@@H]1O [Delphinidin-3-glc, delphinidin-3-glucoside]",28.3

# Same assay, conditions: Helanshan red wine, after simulated gastrointestinal digestion
row,Compound,"PC Contents, Helanshan, After Digestion"
1,O=c1c(O[C@@H]2O[C@H](CO)[C@@H](O)[C@H](O)[C@H]2O)c(-c2ccc(O)c(O)c2)oc2cc(O)cc(O)c12 [Quercetin-3-glc],145.43 ± 5.38 ^b mg/L
2,O=c1c(OC2O[C@H](CO)[C@@H](O)[C@H](O)[C@H]2O)c(-c2cc(O)c(O)c(O)c2)oc2cc(O)cc(O)c12 (some centres unmarked) [Myricetin-3-glc],28.45 ± 1.51 ^b mg/L
3,"OC[C@H]1O[C@@H](Oc2cc3c(O)cc(O)cc3[o+]c2-c2cc(O)c(O)c(O)c2)[C@H](O)[C@@H](O)[C@@H]1O [Delphinidin-3-glc, delphinidin-3-glucoside]",2.63 ± 0.10 ^c mg/L

# Same assay, conditions: Tianzhu red wine, after digestion vs undigested
row,Compound,Increase in content after digestion [%]
1,"OC[C@H]1O[C@@H](Oc2cc3c(O)cc(O)cc3[o+]c2-c2cc(O)c(O)c(O)c2)[C@H](O)[C@@H](O)[C@@H]1O [Delphinidin-3-glc, delphinidin-3-glucoside]",20.6

# Same assay, conditions: Tianzhu red wine, after simulated gastrointestinal digestion
row,Compound,"PC Contents, Tianzhu, After Digestion"
1,O=c1c(O[C@@H]2O[C@H](CO)[C@@H](O)[C@H](O)[C@H]2O)c(-c2ccc(O)c(O)c2)oc2cc(O)cc(O)c12 [Quercetin-3-glc],188.45 ± 8.29 ^b mg/L
2,O=c1c(OC2O[C@H](CO)[C@@H](O)[C@H](O)[C@H]2O)c(-c2cc(O)c(O)c(O)c2)oc2cc(O)cc(O)c12 (some centres unmarked) [Myricetin-3-glc],43.22 ± 1.34 ^b mg/L
3,"OC[C@H]1O[C@@H](Oc2cc3c(O)cc(O)cc3[o+]c2-c2cc(O)c(O)c(O)c2)[C@H](O)[C@@H](O)[C@@H]1O [Delphinidin-3-glc, delphinidin-3-glucoside]",2.87 ± 0.11 ^c mg/L

# Test system: Caco-2 cell monolayer
# Assay: Caco-2 transepithelial transport assay of digested red wine
# Format: in vitro ADME, human
# Settings: Cabernet red wine, digested sample, basolateral side of Caco-2 monolayer
# Description: Caco-2 cells were inoculated following the method of Hubatsch et al. […] Briefly, a 5% v/v of CO2 incubator at 37 °C was used to house the cells. […] Caco-2 cells were sub-cultured when they reached 80-90% of the adherent growth by treating them with a 0.05% v/v of trypsin-EDTA solution. The culture between passages 35 and 40 was used for the following experiment. Transport experiments were performed according to the method of Wu et al. with slight modifications. First, 1.0 × 10^5 Caco-2 cells were inoculated onto 12 mm transparent cell culture plates (Transwell). Media were carefully injected into the apical (0.5 mL) and basolateral (1.5 mL) sides of the Transwell plates. The cell culture medium had to be replaced every other day until the cells formed a monolayer. The integrity and transport ability of the Caco-2 cell monolayer were evaluated by measuring the trans-epithelial electrical resistance (TEER) with a MilliCell voltammeter (Millicell ERS-2, Merck Millipore, Billerica, MA, USA). […] When the cell activity exceeded 0.9, a transport experiment was conducted. The apical side was injected with a digested red wine sample (0.5 mL) and was thoroughly mixed with […] Balanced Salt Solution (HBSS) buffer solution. […] The cells were then cultured in a 37 °C, 5% CO2 incubator. Then, 0.25 mL samples were separately taken from the basolateral side of the monolayer. An equal volume of HBSS buffer was then added every half hour from the beginning of the culture until the end of the culture at 6 h. The collected samples were subsequently filtered and placed in the sample bottle for further HPLC analysis. This experiment was repeated several times to collect enough samples for the next antioxidant test. […] The Agilent 1100 series HPLC instrument was used; it was equipped with a degasser, quaternary pump solvent delivery, a DAD system, and a single quadrupole mass detector coupled with an electrospray ionization LC-MS interface. […] The column temperature was kept at 30 °C, the injection volume was 10 μL, and the flow rate was 0.3 mL/min. The eluents were water and formic acid in a 99:1 (v/v) (A) ratio and 100% acetonitrile (B). The gradient elution procedure was as follows: (1) 3% B solvent at 0 min, (2) 3 to 16% B solvent at 10 min, (3) 16 to 20% B solvent at 30 min, and (4) 20% B solvent maintained until the procedure was completed. The MS configuration was as follows: ESI, negative ion mode, nebulizer pressure of 30 psi, a dry gas flow rate of 10 mL/min, dry gas temperature of 350 °C, and a scan rate of 100~1200 m/z. PCs were determined according to their retention times, UV/VIS spectra, and high-resolution MS spectra, in addition to a comparison with the standards. […] If a standard was unavailable, a structurally related compound was used. Putative annotations were made using spectral features and literature information on the chromatographic properties and mass spectra records from the metabolome database. A standard curve was drawn using methanol solutions with different concentrations as the standards. […] PCs All of the samples were determined in triplicate.
row,Compound,"PC Contents, Cabernet, Transmembrane"
1,O=c1c(O[C@@H]2O[C@H](CO)[C@@H](O)[C@H](O)[C@H]2O)c(-c2ccc(O)c(O)c2)oc2cc(O)cc(O)c12 [Quercetin-3-glc],7.47 ± 0.23 ^a mg/L
2,O=c1c(OC2O[C@H](CO)[C@@H](O)[C@H](O)[C@H]2O)c(-c2cc(O)c(O)c(O)c2)oc2cc(O)cc(O)c12 (some centres unmarked) [Myricetin-3-glc],0.81 ± 0.04 ^a mg/L
3,"OC[C@H]1O[C@@H](Oc2cc3c(O)cc(O)cc3[o+]c2-c2cc(O)c(O)c(O)c2)[C@H](O)[C@@H](O)[C@@H]1O [Delphinidin-3-glc, delphinidin-3-glucoside]",0.59 ± 0.02 ^a mg/L

# Same assay, conditions: Helanshan red wine, digested sample, basolateral side of Caco-2 monolayer
row,Compound,"PC Contents, Helanshan, Transmembrane"
1,O=c1c(O[C@@H]2O[C@H](CO)[C@@H](O)[C@H](O)[C@H]2O)c(-c2ccc(O)c(O)c2)oc2cc(O)cc(O)c12 [Quercetin-3-glc],5.10 ± 0.28 ^a mg/L
2,O=c1c(OC2O[C@H](CO)[C@@H](O)[C@H](O)[C@H]2O)c(-c2cc(O)c(O)c(O)c2)oc2cc(O)cc(O)c12 (some centres unmarked) [Myricetin-3-glc],0.64 ± 0.02 ^a mg/L
3,"OC[C@H]1O[C@@H](Oc2cc3c(O)cc(O)cc3[o+]c2-c2cc(O)c(O)c(O)c2)[C@H](O)[C@@H](O)[C@@H]1O [Delphinidin-3-glc, delphinidin-3-glucoside]",0.53 ± 0.02 ^a mg/L

# Same assay, conditions: Tianzhu red wine, digested sample, basolateral side of Caco-2 monolayer
row,Compound,"PC Contents, Tianzhu, Transmembrane"
1,O=c1c(O[C@@H]2O[C@H](CO)[C@@H](O)[C@H](O)[C@H]2O)c(-c2ccc(O)c(O)c2)oc2cc(O)cc(O)c12 [Quercetin-3-glc],37.54 ± 1.95 ^a mg/L
2,O=c1c(OC2O[C@H](CO)[C@@H](O)[C@H](O)[C@H]2O)c(-c2cc(O)c(O)c(O)c2)oc2cc(O)cc(O)c12 (some centres unmarked) [Myricetin-3-glc],8.61 ± 0.43 ^a mg/L
3,"OC[C@H]1O[C@@H](Oc2cc3c(O)cc(O)cc3[o+]c2-c2cc(O)c(O)c(O)c2)[C@H](O)[C@@H](O)[C@@H]1O [Delphinidin-3-glc, delphinidin-3-glucoside]",0.57 ± 0.02 ^a mg/L

# Same assay, conditions: apical to basolateral, digested Cabernet red wine
row,Compound,"Apparent Permeability Coefficients, Cabernet"
1,O=c1c(O[C@@H]2O[C@H](CO)[C@@H](O)[C@H](O)[C@H]2O)c(-c2ccc(O)c(O)c2)oc2cc(O)cc(O)c12 [Quercetin-3-glc],2.31 ± 0.27 ^a ×10^−6 cm/s
2,O=c1c(OC2O[C@H](CO)[C@@H](O)[C@H](O)[C@H]2O)c(-c2cc(O)c(O)c(O)c2)oc2cc(O)cc(O)c12 (some centres unmarked) [Myricetin-3-glc],1.38 ± 0.17 ^a ×10^−6 cm/s
3,"OC[C@H]1O[C@@H](Oc2cc3c(O)cc(O)cc3[o+]c2-c2cc(O)c(O)c(O)c2)[C@H](O)[C@@H](O)[C@@H]1O [Delphinidin-3-glc, delphinidin-3-glucoside]",12.38 ± 2.37 ^a ×10^−6 cm/s

# Same assay, conditions: apical to basolateral, digested Helanshan red wine
row,Compound,"Apparent Permeability Coefficients, Helanshan"
1,O=c1c(O[C@@H]2O[C@H](CO)[C@@H](O)[C@H](O)[C@H]2O)c(-c2ccc(O)c(O)c2)oc2cc(O)cc(O)c12 [Quercetin-3-glc],2.19 ± 0.26 ^a ×10^−6 cm/s
2,O=c1c(OC2O[C@H](CO)[C@@H](O)[C@H](O)[C@H]2O)c(-c2cc(O)c(O)c(O)c2)oc2cc(O)cc(O)c12 (some centres unmarked) [Myricetin-3-glc],1.41 ± 0.21 ^a ×10^−6 cm/s
3,"OC[C@H]1O[C@@H](Oc2cc3c(O)cc(O)cc3[o+]c2-c2cc(O)c(O)c(O)c2)[C@H](O)[C@@H](O)[C@@H]1O [Delphinidin-3-glc, delphinidin-3-glucoside]",12.59 ± 2.64 ^a ×10^−6 cm/s

# Same assay, conditions: apical to basolateral, digested Tianzhu red wine
row,Compound,"Apparent Permeability Coefficients, Tianzhu"
1,O=c1c(O[C@@H]2O[C@H](CO)[C@@H](O)[C@H](O)[C@H]2O)c(-c2ccc(O)c(O)c2)oc2cc(O)cc(O)c12 [Quercetin-3-glc],2.23 ± 0.22 ^a ×10^−6 cm/s
2,O=c1c(OC2O[C@H](CO)[C@@H](O)[C@H](O)[C@H]2O)c(-c2cc(O)c(O)c(O)c2)oc2cc(O)cc(O)c12 (some centres unmarked) [Myricetin-3-glc],1.35 ± 0.19 ^a ×10^−6 cm/s
3,"OC[C@H]1O[C@@H](Oc2cc3c(O)cc(O)cc3[o+]c2-c2cc(O)c(O)c(O)c2)[C@H](O)[C@@H](O)[C@@H]1O [Delphinidin-3-glc, delphinidin-3-glucoside]",12.45 ± 2.11 ^a ×10^−6 cm/s
